Data as given in PubChem BioAssay (NCI).
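Assay format: 96-well plates, 48-hour exposure. At the TGI there is no net growth.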

Columns and labels:
Assay in all cases: NCI tumour cell line growth inhibition, 48 h
DLD-1 colon = system: DLD-1 colon
P388 leukemia = system: P388 leukemia
P388/ADR leukemia = system: P388/ADR leukemia
SN12K1 renal = system: SN12K1 renal
LXFL 529 NSCLC = system: LXFL 529 NSCLC
RXF-631 renal = system: RXF-631 renal

SMILES	TGI (DLD-1 colon)	TGI (P388 leukemia)	TGI (P388/ADR leukemia)	TGI (SN12K1 renal)	TGI (LXFL 529 NSCLC)	TGI (RXF-631 renal)
Cc1ccc(C2COc3cc(O)c(O)cc3C2)cc1 (stereo not drawn)	105 µM	750 µM	750 µM	75 µM	–	–
COc1cc(C(=O)CC2OC(=O)C(Cl)=C2Cl)ccc1Cl (stereo not drawn)	> 100 µM	–	–	–	> 100 µM	> 100 µM
O=C(c1ccccc1)c1nc2ccc(Cl)cc2c2c1CCCO2	–	–	–	–	> 100 µM	–
